The text below walks through data of patent US8436160B2, “Isolated DNA fragment of the SPARC human promoter and its use for driving the expression of an heterologous gene in tumor cells” (Consejo Nacional de Investigaciones Cientificas y Tecnicas …, priority 2006, dated 2013).

For data set [1], the system named is hMEC-1 cells. Description: Ad(I)-F512-TK lytic effect in monolayer with GCV prodrug. Type of data set: cell-based, human. As to the method:
(§1) According to the present inventors' hypothesis, normal cells have more resistance to viral replication. In this case, adding a toxic gene would allow for the enhancement of the lytic capability in a specific manner in those cells wherein the SPARC promoter was active. Thus, in vitro assays with Ad(I)-F512-TK were carried out, in which the cells were also treated by adding ganciclovir (GCV) prodrug. […] Other analyzed endothelial cells were those of bovine aorta (BAEC, kindly provided by Helene Sage, Seattle, USA).

In data set [2] the test system is BAEC cells. Described as above. Type of data set: cell-based, Bovine. As to the method:
as §1

For data set [3], the system named is A375N (melanoma), HeLa (cervix) and T-47D (breast) cell lines. Briefly: Luciferase reporter promoter activity of SPARC promoter fragments. Type of data set: cell-based, human. The note with it: pGL3 constructs; relative to pGL3-Basic; A375N expresses SPARC, HeLa and T-47D do not. The text has this:
The promoters obtained according to Example 2 were subcloned in the MluI/BglII, MluI/XhoI or NheI/XhoI sites of the pGL3-Basic plasmid (Promega Corp., Madison, Wis., USA) upstream of the luciferase reporter gene. All of the clonings was confirmed by restriction profiles and by sequencing the vectors (pGEM, TOPO and/or pGL3) with the universal primers T7 (TACGACTCACTATAGGG; SEQ ID NO 27); Sp6 (ATTTAGGTGACACTATAG; SEQ ID NO 28), T3 ([…]; SEQ ID NO 29) or P2 ([…]; SEQ ID NO 30) and P3 ([…]; SEQ ID NO 31).
The presence of the luciferase reporter gene allowed for the quantification of SPARC promoter activity in the 11 fragments obtained in Example 2, by measuring the luciferase enzymatic activity. The assay was performed in three cell lines, using the (melanoma) A375N line as a model since it expresses high SPARC levels and the (cervix) HeLa and (breast) T-47D lines, not expressing SPARC, according to the teachings of Example 1 above.
(§2) The cells were seeded in 24-well plates with a density of 4×10^4 cells/well. After 24 hours they were transfected using Lipofectamine2000 (Invitrogen Corp., Carlsbad, Calif.) according to the conditions indicated by the manufacturer. Each treatment was carried out at least in duplicate for each cell line, incubating 0.8 μg of treatment plasmid with 0.1 μg of pRL-CMV plasmid for 5 minutes with 50 μl DMEM medium without antibiotic and simultaneously, 1 μl Lipofectamine2000 with 50 μl of the same medium. These two preparations were mixed and incubated for 20 minutes at room temperature. The medium with cell serum was removed, washed with PBS and 200 μl high glucose DMEM was added without serum and without antibiotics; subsequently, 100 μl medium containing the lipofection mixture was added and 800 μl of culture medium corresponding to each cell line, supplemented with BFS, was added 4 hours later. The cells used were kept in a stove for 46 hours at 37° C. with 5% CO2. The Dual Luciferase Reporter Assay System kit (Promega Corp., Madison, Wis.) was used for the luciferase assay. This system implies the simultaneous expression of two individual reporter enzymes in the same system, allowing for the evaluation of the activity produced by the luciferase enzymes from the Firefly glow-worm (Photinus pyralis) and the Renilla coelenterate (Renilla reniformis) in only one sequential assay (Sherf, B. A. et al., Dual Luciferase Reporter Assay: An Advanced Co-Reporter Technology Integrating Firefly and Renilla Luciferase Assays. Promega Notes Magazine: 2-9, 1996). The data were normalized in the following way:
(§3) The data are expressed as induction amount relative to the activity obtained with the pGL3-Basic control plasmid (without promoter). […]
(In general: A reporter such as luciferase makes a cellular process visible.)

For data set [4], the system named is different tumor and normal cell lines. Briefly: Luciferase reporter promoter activity, F512 vs Spdel. Type of data set: cell-based. To be noted: for promoter activity across cell lines vs SPARC expression: melanoma, colon (T84, LoVo), glioma (U87), cervix (HeLa). As to the method: as §2, §3
(§4) The two promoters F512 and Spdel, having similar promoter activity and as identified by the method of Example 3A, were assessed in different tumor and normal cell lines (see references in Example 1).

The subject of data set [5] is melanoma line MEL888. Description: Luciferase reporter promoter activity. Type of data set: cell-based, human. As to the method: as §2
(§5) The data are expressed as induction amount relative to the activity obtained with the pGL3-Basic control plasmid (without promoter). The pGl3-promoter plasmid (pGL3-prom, Promega Corp., Madison, Wis.) wherein the viral promoter from SV40 drives the expression of the luciferase enzyme, was used as a transfection control.
as §4

In data set [6] the test system is SB2 line. Briefly: Luciferase reporter promoter activity. In kind it is cell-based, human. As to the method:
as §2, §5, §4

In data set [7] the test system is T84. Briefly: Luciferase reporter promoter activity. Type of data set: cell-based, human. As to the method: as §2, §5, §4
Data set [8] relates to fibroblast line WI-38 VA. Briefly: Luciferase reporter promoter activity. In kind it is cell-based, human. As to the method:
as §2, §5, §4

The test system of data set [9] is endothelium BAEC line. Briefly: Luciferase reporter promoter activity. Type of data set: cell-based, Bovine. As to the method:
The cells were seeded in 24-well plates with a density of 4×10^4 cells/well. After 24 hours they were transfected using Lipofectamine2000 (Invitrogen Corp., Carlsbad, Calif.) according to the conditions indicated by the manufacturer. Each treatment was carried out at least in duplicate for each cell line, incubating 0.8 μg of treatment plasmid with 0.1 μg of pRL-CMV plasmid for 5 minutes with 50 μl DMEM medium without antibiotic and simultaneously, 1 μl Lipofectamine2000 with 50 μl of the same medium. These two preparations were mixed and incubated for 20 minutes at room temperature. The medium with cell serum was removed, washed with PBS and 200 μl high glucose DMEM was added without serum and without antibiotics; subsequently, 100 μl medium containing the lipofection mixture was added and 800 μl of culture medium corresponding to each cell line, supplemented with BFS, was added 4 hours later. The cells used were kept in a stove for 46 hours at 37° C. with 5% CO2. […]
as §3, §4

For `Nc1nc(O)c2ncn(COC(CO)CO)c2n1` [GCV, ganciclovir], the “sensitivity of cells to prodrug alone” value in [1] is “sensitive to the presence of the prodrug alone”. In data set [2], the “sensitivity of cells to prodrug” value is given as “sensitive to the prodrug”.
“Spdel: complete SPARC promoter −1175/+71 with the 10 bp between the two GGA boxes deleted, SEQ ID NO 18”: the “promoter activity and specificity (luciferase)” value in data set [3] is reported as “same activity than F512, in the A375N melanoma line”. Besides, the “promoter activity with respect to the empty vector pGL3-Basic” value in data set [4] (average, both in tumor and normal lines) is 140 times higher; in data set [5] it was 430 times higher. Further, in data set [4], the “promoter activity across cell lines vs SPARC expression” value is on record as “same activity in all lines”.
On to “−1175/+71: complete human SPARC promoter, SEQ ID NO 17”, for which the “promoter activity and specificity (luciferase)” value in data set [3] is given as “lower promoter activity in melanoma lines”.

B1: F512: human SPARC promoter fragment from base pair −513 to +35, SEQ ID NO 1 (nucleic acid, listed as Homo sapiens)
DNA: GCAGCTTGTCTTGTCTGTACAGTGGTAAGTCCTGGCCTTGCCTTTGTGGCAAATACAACCCCCTTGAATTGCTTGGCCCTTCTCAGCATTGCCTAATATTAGGGAGGACTCCTGTAAAGCTCACTGGTTAGAAGATCAAGACACTTGGGCCTGGTTCTGCCCCTGGGGGCCATTGGGTAATTCCTTGCAGTCTCCAGGCCTCACTTGCCCTCTGAACAAGAAAGAGGCTGTTCTGGGTCATCCCTCCAGGCCTGTCCAGCCCTGGCACTCTGTGAGTCGGTTTAGGCAGCAGCCCCGGAACAGATGAGGCAGGCAGGGTTGGGACGTTTGGTCAGGACAGCCCACCGCAAAAAGAGGAGGAAAGAAATGAAAGACAGAGACAGCTTTGGCTATGGGAGAAGGAGGAGGCCGGGGGAAGGAGGAGACAGGAGGAGGAGGGACCACGGGGTGGAGGGGAGATAGACCCAGCCCAGAGCTCTGAGTGGTTTCCTGTTGCCTGTCTCTAAACCCCTCCACATTCCCGCGGTCCTTCAGACTGCCCGGAGAGC
modifications: DNA fragment of the SPARC human promoter.
Regarding B1, the “promoter activity and specificity (luciferase)” value in [3] is “higher specificity and higher activity in the line expressing SPARC”. In addition, in [4], the “promoter activity across cell lines vs SPARC expression” value is “lower activity in those lines with little or null SPARC expression”. For the same molecule, the “promoter activity relative to the activity observed in A375N” value in [6] is recorded as “approximately ⅓”. The “promoter activity relative to melanoma lines” value in [7] is “half the activity observed for the melanoma lines”. The promoter activity entry in data set [8] and in [9] was “active” throughout.

B2: −120/+71: SPARC promoter fragment including the complete first exon, SEQ ID NO 24 (nucleic acid, listed as Homo sapiens)
DNA: GGGAGAAGGAGGAGGCCGGGGGAAGGAGGAGACAGGAGGAGGAGGGACCACGGGGTGGAGGGGAGATAGACCCAGCCCAGAGCTCTGAGTGGTTTCCTGTTGCCTGTCTCTAAACCCCTCCACATTCCCGCGGTCCTTCAGACTGCCCGGAGAGCGCGCTCTGCCTGCCGCCTGCCTGCCTGCCACTGAGG
For the molecule B2, in data set [3], the “promoter activity and specificity (luciferase)” value is given as “higher unspecificity”.
